The NIST ThermoML archive (doi:10.1016/j.jct.2004.12.004)

Test: mn = molality of the nth substance listed, in mol/kg
Conditions: 350 kPa, Liquid, Extra sensitive DSC

OC[C@H]1O[C@@H](O[C@H]2[C@H](O)[C@@H](O)[C@H](O)O[C@@H]2CO)[C@H](O)[C@@H](O)[C@@H]1O [D-cellobiose] + O
apparent molar heat capacity [J/K/mol]
Conditions | m1 = 0.03222 | m1 = 0.05175 | m1 = 0.07986 | m1 = 0.09996 | m1 = 0.1501 | m1 = 0.3084
278.15 K | 562.9 | 563 | 562 | 561.2 | 563 | 566.4
283.15 K | 593 | 592.8 | 591.5 | 590.9 | 592 | 594.5
288.15 K | 619.4 | 618.8 | 617.3 | 616.9 | 617.5 | 619.6
293.15 K | 641.7 | 641.1 | 639.4 | 639.2 | 639.5 | 641.1
298.15 K | 661.3 | 660.7 | 658.6 | 658.8 | 658.7 | 660.1
303.15 K | 678.3 | 677.8 | 675.4 | 676.2 | 675.7 | 676.9
308.15 K | 693.2 | 692.9 | 690.6 | 691.5 | 690.9 | 691.8
313.15 K | 706.5 | 706.5 | 704.1 | 705 | 704.3 | 705.1
318.15 K | 718.8 | 718.9 | 716.6 | 717.5 | 716.7 | 717.3
323.15 K | 730 | 730.1 | 728 | 728.9 | 728.1 | 728.5
328.15 K | 740.4 | 740.7 | 738.6 | 739.5 | 738.7 | 739
333.15 K | 750.3 | 750.6 | 748.6 | 749.5 | 748.7 | 748.9
338.15 K | 759.6 | 759.9 | 758 | 758.9 | 758.1 | 758.3
343.15 K | 768.2 | 768.6 | 766.7 | 767.6 | 766.7 | 766.9
348.15 K | 776.4 | 776.6 | 774.8 | 775.8 | 774.9 | 775
353.15 K | 783.8 | 784.2 | 782.5 | 783.5 | 782.6 | 782.7
358.15 K | 791.1 | 791.5 | 789.8 | 790.8 | 789.9 | 789.9
363.15 K | 797.8 | 798.3 | 796.7 | 797.8 | 796.8 | 796.8
368.15 K | 803.8 | 804.6 | 803 | 804.1 | 803.1 | 803.1
373.15 K | 809.8 | 810.7 | 809 | 810.1 | 809.2 | 809.1
378.15 K | 815 | 816.2 | 814.6 | 815.8 | 814.7 | 814.7
383.15 K | 819.8 | 821.3 | 819.7 | 821.4 | 820 | 819.9
388.15 K | 823 | 825.3 | 824.1 | 827.6 | 824.9 | 824.8
393.15 K | 826.1 | 828.7 | 827.9 | 833 | 829.1 | 829.2
